In the NIST ThermoML archive (doi:10.1021/je9003383) one finds mass density data, which are given here for 2 molecules.

The structures appear in SMILES notation. Numbers after ± are expanded uncertainties.

This series in a line: mn = molality of the nth substance listed, in mol/kg. The conditions noted are these: 293.15 K, 101 kPa, Liquid, Vibrating tube method.

Turning to `CN(CCO)CCO` [N-methyldiethanolamine] + O, the mass density worked out at 1014.8 ± 1 kg/m3 (m1 = 1.867); 1029.6 ± 1 kg/m3 (m1 = 4.118); 1038.8 ± 1 kg/m3 (m1 = 6.189); 1044.8 ± 1 kg/m3 (m1 = 8.119); 1048.6 ± 1.1 kg/m3 (m1 = 10.03); 1051.6 ± 1.1 kg/m3 (m1 = 12.1).
Take `C1CNCCN1` [piperazine] + O: the mass density stood at 999.1 ± 1 kg/m3 (m1 = 0.2628); 999.8 ± 1 kg/m3 (m1 = 0.4689); 1000.8 ± 1 kg/m3 (m1 = 0.7153); 1001.8 ± 1 kg/m3 (m1 = 0.9675); 1003.1 ± 1 kg/m3 (m1 = 1.268); 1004 ± 1 kg/m3 (m1 = 1.448).
